This is an account of results in patent US11352308B2, “Compound and semiconductor material containing same” (DIC Corporation, priority 2016, dated 2022).

A short description of the data set: Solubility in p-xylene at room temperature (25° C.), visual complete dissolution. It is filed as physicochemical. Here is the method:
Solubility was evaluated by completely dissolving compound (101) visually by adding p-xylene at room temperature (25° C.).
Regarding `CCCCCCc1ccc2cc3cc(-c4ccccc4)ccc3cc2c1` [Compound (101)], the Solubility of compound worked out at 1.3 wt %.

With `CCCCCCCc1ccc2cc3cc(-c4ccccc4)ccc3cc2c1` [Compound (102)], the Solubility of compound turned out to be 1.1 wt %.

Regarding `CCCCCCCCc1ccc2cc3cc(-c4ccccc4)ccc3cc2c1` [Compound (103)], the Solubility of compound was 0.7 wt %.

`CCCCCCCCCc1ccc2cc3cc(-c4ccccc4)ccc3cc2c1` [Compound (104)] had a Solubility of compound of 0.7 wt %.

Consider `CCCCCCCCCCc1ccc2cc3cc(-c4ccccc4)ccc3cc2c1` [Compound (105)], for which the Solubility of compound turned out to be 0.4 wt %.

`CCCCCCc1ccc2cc3cc(-c4ccc(C)cc4)ccc3cc2c1` [Compound (106)]: the Solubility of compound turned out to be 0.8 wt %.

In turn, `CCCCCCCCCCc1ccc2cc3cc(-c4ccc(C)cc4)ccc3cc2c1` [Compound (107)] came in with a Solubility of compound of 0.4 wt %.

Consider `c1ccc(-c2ccc3cc4cc(-c5ccccc5)ccc4cc3c2)cc1` [Compound (C101), reference compound], for which the Solubility of compound was <0.1 (which cannot accurately be wt %.
